Consider four molecules from patent publication US11420969B2 (Exonate Limited, priority 2017, dated 2022).

The target in one experiment is T1, CYP2C9 (Homo sapiens, UniProt P11712).
T1 construct: from tissue; host or cells: human liver microsomes
Briefly: CYP inhibition assay, human liver microsomes, substrate diclofenac. It counts as in vitro ADME. To be noted: human liver microsomes, 10 min incubation, LC-MS/MS; read-out: CYP Inhibition Activity (IC50/nM) CYP2C9. In outline: (§1)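 Inhibition was determined with all substrates combined as a cocktail, a 20 min compound pre-incubation and a 10 min NADPH reaction at 37 °C. IC50 was calculated from LC-MS/MS data.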

Experiment [1] relates to laser-induced choroidal neovascularisation (CNV) lesions. Nature of the experiment: In vivo angiogenesis assay: laser-induced choroidal neovascularisation (CNV). More on the design: species or system C57/B6 mice. To be noted: laser-induced mouse model of CNV; topical eye drops twice daily, 2 mg/mL, 10 μl; one week; FIG. 1(a). The procedure:
In Vivo Angiogenesis Assay: Laser-Induced Choroidal Neovascularisation (CNV) Protocol
6-8 week-old female C57/B6 mice were anesthetized with an intraperitoneal injection of a mixture of 50 mg/kg ketamine and 0.5 mg/kg medetomidine. The pupils were immediately dilated by topical (eyedrop) application with a dilator such as 5% phenylephrine hydrochloride and 1% tropicamide. Four photocoagulation lesions were delivered with a green Merilas 532α laser (450 mW, 130 ms) between the “large” retinal vessels in clear space with no vessels in a peripapillary distribution at a distance of 1-2 disc-diameters in each eye. Only clean laser lesions with a subretinal bubble at the time of treatment were included in the study. Immediately following laser photocoagulation the animals were given topical eye drops of candidate compounds twice daily (2 mg/mL, 10 μl, eyes held for 30 seconds to prevent animal wiping drop away).
After one week, mice were anesthetized with an intraperitoneal injection of a mixture of 50 mg/kg ketamine and 0.5 mg/kg medetomidine. The pupils were immediately dilated by topical (eyedrop) application with a dilator such as 5% phenylephrine hydrochloride and 1% tropicamide. Mice were administered an intraperitoneal injection of sodium fluorescein (10%). […]
The optical density of each well was measured immediately, using a microplate reader set to 450 nm.

A further experiment deals with T2, CYP2D6 (Homo sapiens, UniProt P10635).
T2 construct: from tissue; host or cells: human liver microsomes
Nature of the experiment: biochemical. It counts as in vitro ADME. In outline:
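Human liver microsomes (0.253 mg/mL working stock) pre-incubated with compound and substrate pool at 37° C for 20 min. Reaction started with NADPH and run 10 min at 37° C, stopped with cold ACN. Metabolite analysed by LC-MS/MS; % inhibition and IC50 calculated versus inhibitor-free control.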

Another experiment concerns the target T3, CYP3A4 (Homo sapiens, UniProt P08684).
T3 construct: from tissue; host or cells: human liver microsomes
Nature of the experiment: CYP inhibition assay, human liver microsomes, substrate midazolam. It is filed as in vitro ADME. The settings on record: human liver microsomes, 10 min incubation, LC-MS/MS; read-out: CYP Inhibition Activity (IC50/nM) CYP3A4. In outline: as §1
Background: Liver microsomes are vesicles of endoplasmic reticulum, rich in cytochrome P450 enzymes.

For a further experiment, the target named is SRPK1 (Homo sapiens, UniProt Q96SB4). Briefly: In vitro SRPK1 assay (Kinase-Glo). It is filed as biochemical. In general terms: In Kinase-Glo more light means more ATP remaining.
The next experiment concerns the target T4, CYP2C19 (Homo sapiens, UniProt P33261).
T4 construct: from tissue; host or cells: human liver microsomes
Briefly: CYP inhibition assay, human liver microsomes, substrate S-mephenytoin. It counts as in vitro ADME. The settings on record: human liver microsomes, 10 min incubation, LC-MS/MS; read-out: CYP Inhibition Activity (IC50/nM) CYP2C19. In outline:
as §1

The target in another experiment is T5, CYP1A2 (Homo sapiens, UniProt P05177).
T5 construct: from tissue; host or cells: human liver microsomes
T5 sequence (P05177 1-516): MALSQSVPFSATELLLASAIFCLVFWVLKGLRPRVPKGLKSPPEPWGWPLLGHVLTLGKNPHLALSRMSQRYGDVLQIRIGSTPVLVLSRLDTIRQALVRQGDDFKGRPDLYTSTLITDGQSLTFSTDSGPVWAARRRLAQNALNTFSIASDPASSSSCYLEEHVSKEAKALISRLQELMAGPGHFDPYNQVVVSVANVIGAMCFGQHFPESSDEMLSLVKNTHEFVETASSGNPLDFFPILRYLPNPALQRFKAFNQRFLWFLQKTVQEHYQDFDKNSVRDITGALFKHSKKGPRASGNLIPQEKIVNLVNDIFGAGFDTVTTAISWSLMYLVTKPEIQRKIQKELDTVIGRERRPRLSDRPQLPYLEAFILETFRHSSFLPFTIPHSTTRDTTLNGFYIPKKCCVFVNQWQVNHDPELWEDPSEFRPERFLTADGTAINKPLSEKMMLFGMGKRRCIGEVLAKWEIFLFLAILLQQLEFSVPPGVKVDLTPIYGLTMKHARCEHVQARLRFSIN
Nature of the experiment: CYP inhibition assay, human liver microsomes, substrate tacrine. It is filed as in vitro ADME. To be noted: human liver microsomes, 10 min incubation, LC-MS/MS; read-out: CYP Inhibition Activity (IC50/nM) CYP1A2. In outline:
as §1

T4 sequence (P33261 whole entry): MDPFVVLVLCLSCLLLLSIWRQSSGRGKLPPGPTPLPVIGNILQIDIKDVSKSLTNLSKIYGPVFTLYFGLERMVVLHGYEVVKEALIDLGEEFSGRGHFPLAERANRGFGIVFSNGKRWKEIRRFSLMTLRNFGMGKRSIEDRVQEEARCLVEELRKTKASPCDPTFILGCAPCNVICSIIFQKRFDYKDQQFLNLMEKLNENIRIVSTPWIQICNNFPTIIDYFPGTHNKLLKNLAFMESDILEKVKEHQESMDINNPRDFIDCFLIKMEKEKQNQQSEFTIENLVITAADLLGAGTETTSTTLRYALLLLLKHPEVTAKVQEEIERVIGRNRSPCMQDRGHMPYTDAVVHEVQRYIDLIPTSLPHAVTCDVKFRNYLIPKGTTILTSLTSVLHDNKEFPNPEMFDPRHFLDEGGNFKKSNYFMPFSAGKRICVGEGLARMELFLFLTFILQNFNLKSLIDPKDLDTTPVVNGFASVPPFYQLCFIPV
T1 sequence (P11712 whole entry): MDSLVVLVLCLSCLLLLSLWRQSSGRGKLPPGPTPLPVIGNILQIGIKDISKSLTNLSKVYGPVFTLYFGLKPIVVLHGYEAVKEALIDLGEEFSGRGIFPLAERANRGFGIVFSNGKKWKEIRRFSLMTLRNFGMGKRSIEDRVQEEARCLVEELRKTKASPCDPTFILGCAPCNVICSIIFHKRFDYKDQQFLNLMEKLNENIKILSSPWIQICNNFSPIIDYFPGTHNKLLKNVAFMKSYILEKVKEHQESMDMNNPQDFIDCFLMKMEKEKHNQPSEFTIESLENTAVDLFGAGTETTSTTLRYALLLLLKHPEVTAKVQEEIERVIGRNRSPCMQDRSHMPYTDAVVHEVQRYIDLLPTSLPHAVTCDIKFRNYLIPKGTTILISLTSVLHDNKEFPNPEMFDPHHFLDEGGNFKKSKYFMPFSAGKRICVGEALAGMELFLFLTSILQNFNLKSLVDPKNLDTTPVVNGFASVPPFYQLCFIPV
T3 sequence (P08684 whole entry): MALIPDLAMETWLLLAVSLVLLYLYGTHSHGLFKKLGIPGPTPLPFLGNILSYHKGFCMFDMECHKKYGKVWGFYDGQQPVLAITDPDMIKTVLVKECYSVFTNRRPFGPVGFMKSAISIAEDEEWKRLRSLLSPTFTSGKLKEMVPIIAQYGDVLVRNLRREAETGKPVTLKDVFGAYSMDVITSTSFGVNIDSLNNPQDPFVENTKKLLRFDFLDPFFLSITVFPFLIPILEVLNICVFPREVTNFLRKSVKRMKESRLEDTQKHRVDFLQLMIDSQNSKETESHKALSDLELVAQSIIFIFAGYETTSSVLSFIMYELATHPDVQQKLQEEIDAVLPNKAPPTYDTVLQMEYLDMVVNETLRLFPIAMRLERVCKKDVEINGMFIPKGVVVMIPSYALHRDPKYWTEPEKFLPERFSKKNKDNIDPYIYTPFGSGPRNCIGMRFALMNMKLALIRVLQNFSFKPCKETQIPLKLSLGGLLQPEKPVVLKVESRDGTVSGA
T2 sequence (P10635 whole entry): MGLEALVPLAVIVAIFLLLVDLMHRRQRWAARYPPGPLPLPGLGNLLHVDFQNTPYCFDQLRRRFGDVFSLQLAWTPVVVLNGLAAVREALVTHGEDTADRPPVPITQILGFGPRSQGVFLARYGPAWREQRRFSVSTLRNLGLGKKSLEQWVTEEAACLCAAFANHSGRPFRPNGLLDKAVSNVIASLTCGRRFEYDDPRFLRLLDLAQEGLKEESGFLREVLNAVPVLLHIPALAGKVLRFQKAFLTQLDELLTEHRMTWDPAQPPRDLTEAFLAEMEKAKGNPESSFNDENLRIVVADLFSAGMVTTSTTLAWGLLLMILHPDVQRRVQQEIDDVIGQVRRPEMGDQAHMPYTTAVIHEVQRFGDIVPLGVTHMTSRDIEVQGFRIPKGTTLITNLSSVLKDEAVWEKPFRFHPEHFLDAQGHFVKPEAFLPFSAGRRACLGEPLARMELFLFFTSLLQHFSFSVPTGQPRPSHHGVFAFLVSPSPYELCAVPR
Sequence of SRPK1 (Q96SB4 whole entry, species assumed): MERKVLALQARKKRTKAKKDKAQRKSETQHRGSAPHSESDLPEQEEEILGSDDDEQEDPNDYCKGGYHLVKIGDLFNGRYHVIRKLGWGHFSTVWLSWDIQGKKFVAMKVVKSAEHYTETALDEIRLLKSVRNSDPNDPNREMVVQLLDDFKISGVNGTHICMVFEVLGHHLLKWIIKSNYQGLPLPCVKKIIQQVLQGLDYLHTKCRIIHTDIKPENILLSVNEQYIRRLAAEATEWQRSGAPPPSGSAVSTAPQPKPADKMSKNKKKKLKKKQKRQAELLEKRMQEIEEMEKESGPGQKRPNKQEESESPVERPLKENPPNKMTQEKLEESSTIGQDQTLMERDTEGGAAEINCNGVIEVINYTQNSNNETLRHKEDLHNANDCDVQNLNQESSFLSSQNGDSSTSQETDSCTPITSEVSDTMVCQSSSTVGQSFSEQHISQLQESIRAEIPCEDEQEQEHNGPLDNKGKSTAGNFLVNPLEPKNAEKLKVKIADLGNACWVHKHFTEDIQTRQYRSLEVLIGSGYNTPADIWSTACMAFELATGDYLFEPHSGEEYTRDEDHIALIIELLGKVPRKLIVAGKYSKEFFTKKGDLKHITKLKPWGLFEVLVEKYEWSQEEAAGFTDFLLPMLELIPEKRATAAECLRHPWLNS

Regarding `CC1(O)CCN(c2ccc(Cl)cc2NC(=O)c2ccc(C3CCOCC3)o2)CC1` [Example 12], the IC50 at CYP2C9 is 6980 nM; against CYP2D6, 23.2 µM; at CYP3A4, 2660 nM; on SRPK1, 0.3 nM; at CYP2C19 it was 11800 nM; on CYP1A2 it was 13900 nM. Besides, in experiment [1], the “anti-angiogenic activity on lesion size” value is “improved anti-angiogenic activity on lesion size and the same efficacy as reference compounds”.
For the molecule `CN(C)CC1(C)CCN(c2ccc(C(F)(F)F)cc2NC(=O)c2ccc(C3CCOCC3)o2)CC1` [Example 83, N-(2-(4-((dimethylamino)methyl)-4-methyl-piperidin-1-yl)-5-(trifluoromethyl)phenyl)-5-(tetrahydro-2H-pyran-4-yl)furan-2-carboxamide], the IC50 on CYP2C9 was 24300 nM; at CYP2D6, 3.2 µM; on CYP3A4, 21000 nM; against SRPK1, 3.2 nM; on CYP2C19, above 30000 nM; on CYP1A2 it was above 30000 nM.
As for `CN1CCC2(CCN(c3ccc(C(F)(F)F)cc3NC(=O)c3ccc(C4CCOCC4)o3)CC2)C1=O` [Example 100, N-(2-(2-methyl-1-oxo-2,8-diazaspiro[4.5]decan-8-yl)-5-(trifluoromethyl)phenyl)-5-(tetrahydro-2H-pyran-4-yl)furan-2-carboxamide], the IC50 was 7300 nM at CYP2C9; 13.8 µM against CYP2D6; 2700 nM on CYP3A4; 2.6 nM against SRPK1; 3200 nM at CYP2C19; above 30000 nM at CYP1A2.
Consider `COC1(C)CCN(c2ccc(C(F)(F)F)cc2NC(=O)c2ccc(C3CCOCC3)o2)CC1` [Example 18, N-(2-(4-methoxy-4-methylpiperidin-1-yl)-5-(trifluoromethyl)-phenyl)-5-(tetrahydro-2H-pyran-4-yl)furan-2-carboxamide], for which the IC50 on CYP2C9 was 5160 nM; at CYP2D6, 15.8 µM; on CYP3A4, 9800 nM; against SRPK1, 54 nM; at CYP2C19, 4910 nM; at CYP1A2 it was above 30000 nM.
